Values quoted from earlier work in PubChem BioAssay AID1259409 (Chemical Carcinogenesis Research Information System (CCRIS), 2018).

System: rodent chemically induced tumor inhibition, incidence and multiplicity
Experiment: CCRIS tumor inhibitor studies
Conditions: Carcinogen: 7,12-DIMETHYLBENZ[A]ANTHRACENE, 57-97-6, Route [Inhibitor]: ORAL, Promoter: NONE USED

In the case of `O=[Se](O)O`, the “tumour outcome (control, treated, inhibition, significance)” value (Dose [Inhibitor]: 0, 0.5 UG/G IN DIET BEGINNING 2 WK PRIOR TO CARCINOGEN DOSE AND CONTINUING FOR 2 WK POST CARCINOGEN DOSE FOLLOWED BY BAS, Species: RAT, Strain/Sex: SPRAGUE-DAWLEY/FEMALE, Target Tissue: Type of Lesion: MAMMARY GLAND: TUMOR, Dose [Carcinogen]: 5 MG/KG) is given as 52%, 32%, 38%, not calculated, the “tumour outcome (control, treated, inhibition, significance)” value (Dose [Inhibitor]: 0, 1 UG/G IN DIET BEGINNING 2 WK PRIOR TO CARCINOGEN DOSE AND CONTINUING FOR 2 WK POST CARCINOGEN DOSE FOLLOWED BY BASAL, Species: RAT, Strain/Sex: SPRAGUE-DAWLEY/FEMALE, Target Tissue: Type of Lesion: MAMMARY GLAND: TUMOR, Dose [Carcinogen]: 5 MG/KG) is given as 52%, 24%, 54%, not calculated and the “tumour outcome (control, treated, inhibition, significance)” value (Dose [Inhibitor]: 0, 2 PPM (AS SELENIUM) IN DIET BEGINNING 2 WK PRIOR TO CARCINOGEN DOSE AND CONTINUING FOR DURATION OF STUDY (STUDY DURAT, Species: RAT, Strain/Sex: SPRAGUE-DAWLEY/FEMALE, Target Tissue: Type of Lesion: MAMMARY GLAND: ADENOCARCINOMA, Dose [Carcinogen]: 10 MG ONCE AT 55 D OF AGE) is given as 88%, 72%, 18%, not significant. For the same molecule, the “tumour outcome (control, treated, inhibition, significance)” value (Dose [Inhibitor]: 0, 2 UG/G IN DIET BEGINNING 2 WK PRIOR TO CARCINOGEN DOSE AND CONTINUING FOR 2 WK POST CARCINOGEN DOSE FOLLOWED BY BASAL, Species: RAT, Strain/Sex: SPRAGUE-DAWLEY/FEMALE, Target Tissue: Type of Lesion: MAMMARY GLAND: TUMOR, Dose [Carcinogen]: 5 MG/KG) was 52%, 14%, 73%, not calculated, the “tumour outcome (control, treated, inhibition, significance)” value (Dose [Inhibitor]: 0, 2.5 MG/KG IN DIET TO ANIMALS ON VITAMIN E ADEQUATE DIETS (50 MG/KG) (STUDY DURATION: 20 WK), Species: RAT, Strain/Sex: SPRAGUE-DAWLEY/FEMALE, Target Tissue: Type of Lesion: MAMMARY GLAND: TUMOR, Dose [Carcinogen]: 5 MG ONCE AT 50 D OF AGE) was 19/25 (76%), 10/25 (40%), 47%, not calculated and the “tumour outcome (control, treated, inhibition, significance)” value (Dose [Inhibitor]: 0, 2.5 MG/KG IN DIET TO ANIMALS ON VITAMIN E DEFICIENT DIETS (10 MG/KG) (STUDY DURATION: 20 WK), Species: RAT, Strain/Sex: SPRAGUE-DAWLEY/FEMALE, Target Tissue: Type of Lesion: MAMMARY GLAND: TUMOR, Dose [Carcinogen]: 5 MG ONCE AT 50 D AGE) was 21/25 (84%), 17/25 (68%), 19%, not calculated. For the same molecule, the “tumour outcome (control, treated, inhibition, significance)” value (Dose [Inhibitor]: 0, 3 PPM (AS SELENIUM) IN DIET BEGINNING 2 WK PRIOR TO CARCINOGEN DOSE AND CONTINUING FOR DURATION OF STUDY (STUDY DURAT, Species: RAT, Strain/Sex: SPRAGUE-DAWLEY/FEMALE, Target Tissue: Type of Lesion: MAMMARY GLAND: ADENOCARCINOMA, Dose [Carcinogen]: 10 MG ONCE AT 55 D OF AGE) was 88%, 52%, 41%, p<0.05, the “tumour outcome (control, treated, inhibition, significance)” value (Dose [Inhibitor]: 0, 3 UG/ML IN DRINKING WATER FROM 40-90 D OF AGE THEN 0, 2 UG/ML FROM 90-180 D OF AGE AND 0, 1 UG/ML FROM 180-240 D OF A, Dose [Inhibitor]: 0, 3 UG/ML IN DRINKING WATER FROM 40-90 D OF AGE THEN 0, 2 UG/ML FROM 90-180 D OF AGE AND 0, 1 UG/ML FROM 180-240 D OF A, Species: RAT, Strain/Sex: SPRAGUE DAWLEY/FEMALE, Target Tissue: Type of Lesion: MAMMARY GLAND: ADENOCARCINOMA, FIBROADENOMA, Dose [Carcinogen]: 5 MG IN 0.2 ML SESAME OIL 1/2 D FOR 12 D BEGINNING AT 50 D OF AGE) was 100%, 52%, 48%, p<0.001 and the “tumour outcome (control, treated, inhibition, significance)” value (Dose [Inhibitor]: 0, 4 PPM IN DRINKING WATER BEGINNING 2 WK PRIOR TO CARCINOGEN DOSE AND CONTINUING FOR 1 WK POST CARCINOGEN DOSE (STUDY D, Species: RAT, Strain/Sex: SPRAGUE-DAWLEY/FEMALE, Target Tissue: Type of Lesion: MAMMARY GLAND: TUMOR, Dose [Carcinogen]: 10 MG IN 1 ML OLIVE OIL ONCE AT 7 WK OF AGE) was 19/21 (91%), 19/21 (91%), 0%. The “tumour outcome (control, treated, inhibition, significance)” value (Dose [Inhibitor]: 0, 4 UG/G IN DIET BEGINNING 2 WK PRIOR TO CARCINOGEN DOSE AND CONTINUING FOR 2 WK POST CARCINOGEN DOSE FOLLOWED BY BASAL, Species: RAT, Strain/Sex: SPRAGUE-DAWLEY/FEMALE, Target Tissue: Type of Lesion: MAMMARY GLAND: TUMOR, Dose [Carcinogen]: 5 MG/KG) was 52%, 10%, 81%, not calculated, the “tumour outcome (control, treated, inhibition, significance)” value (Dose [Inhibitor]: 0, 4 UG/G IN DIET BEGINNING 2 WK PRIOR TO CARCINOGEN DOSE AND CONTINUING FOR DURATION OF STUDY (STUDY DURATION: 43 WK), Species: RAT, Strain/Sex: SPRAGUE-DAWLEY/FEMALE, Target Tissue: Type of Lesion: MAMMARY GLAND: TUMOR, Dose [Carcinogen]: 5 MG/KG) was 52%, 5%, 90%, not calculated and the “tumour outcome (control, treated, inhibition, significance)” value (Dose [Inhibitor]: 0.2, 2 PPM IN DIET BEGINNING 3 D PRIOR TO CARCINOGEN DOSE AND CONTINUING FOR 8 MO (STUDY DURATION: 8 MO), Species: MOUSE, Strain/Sex: BALB/FEMALE, Target Tissue: Type of Lesion: MAMMARY GLAND: ADENOCARCINOMA, Dose [Carcinogen]: 1 MG/WK FOR 6 WK) was 12/31 (39%), 4/34 (12%), 69%, p<0.025. The “tumour outcome (control, treated, inhibition, significance)” value (Dose [Inhibitor]: 0.5 PPM IN 5% CORN OIL DIET DAILY STARTING 29 D BEFORE CARCINOGEN TREATMENT AND CONTINUING FOR DURATION OF STUDY (STUDY, Species: RAT, Strain/Sex: SPRAGUE-DAWLEY/FEMALE, Target Tissue: Type of Lesion: MAMMARY GLAND: ADENOCARCINOMA, Dose [Carcinogen]: 5 MG IN CORN OIL ONCE AT 50 D OF AGE) was 12/30 (40%), 11/30 (37%), 8%, not significant, the “tumour outcome (control, treated, inhibition, significance)” value (Dose [Inhibitor]: 0.5 PPM IN 25% CORN OIL DIET DAILY STARTING 29 D BEFORE CARCINOGEN TREATMENT AND CONTINUING FOR DURATION OF STUDY (STUDY, Species: RAT, Strain/Sex: SPRAGUE-DAWLEY/FEMALE, Target Tissue: Type of Lesion: MAMMARY GLAND: ADENOCARCINOMA, Dose [Carcinogen]: 5 MG IN CORN OIL ONCE AT 50 D OF AGE) was 21/30 (70%), 20/29 (69%), 1%, not significant and the “tumour outcome (control, treated, inhibition, significance)” value (Dose [Inhibitor]: 0.5 PPM IN DIET DAILY STARTING 1 WK PRIOR TO CARCINOGEN TREATMENT AND CONTINUING FOR DURATION OF STUDY (STUDY DURATION:, Species: MOUSE, Strain/Sex: BD2F1/FEMALE, Target Tissue: Type of Lesion: MAMMARY GLAND: TUMOR, Dose [Carcinogen]: 1 MG IN 0.2 ML COTTONSEED OIL 1/WK FOR 6 WK STARTING AT 8 WK OF AGE) was 18/32 (56%), 10/33 (30%), 46%, not calculated.
